Literature values in paper PMC5228037, “Discovery and Mechanistic Characterization of Selective Inhibitors of H2S-producing Enzyme: 3-Mercaptopyruvate Sulfurtransferase (3MST) Targeting Active-site Cysteine Persulfide” (Scientific Reports, 2017).

Experiments:
[1] = set-up: method as in PMID 26269587; conditions: cited from earlier work
3MST = conditions: cited from earlier work; for Inhibition constant Ki for 3MST: substrate-like inhibitors

| SMILES | Inhibition constant Ki for 3MST (3MST) | also measured |
| --- | --- | --- |
| N[C@@H](CSS)C(=O)O [cysteine persulfide] | – | calculated pKa [1]: 4.34 |
| CC(=O)C(=O)O [pyruvate] | several | – |
| O=C(O)C(=O)CS [3MP, 3-mercaptopyruvate] | – | Km (3MST; substrate, read-out: Michaelis constant Km for 3MST): 4.08 mM |
| O=C(O)CCS [3-mercaptopropionic acid] | several | – |
